Measurements taken from patent US20230274811A1, “METHODS OF MAKING PROSTATE CANCER TREATMENT DECISIONS” (Progenics Pharmaceuticals, Inc., priority 2020, published 2023).

Test system: high-risk PCa
Assay: OSPREY Cohort A sub-analysis: TNM staging by 18F-DCFPyL PET/CT at initial staging
Assay type: in vivo
Conditions: 252 men
From the text: Three central, blinded, and independent readers evaluated the ^18F-DCFPyL scans.

SMILES: O=C(O)CC[C@H](NC(=O)N[C@@H](CCCCNC(=O)c1ccc([18F])nc1)C(=O)O)C(=O)O [18F-DCFPyL, 2-(3-{1-carboxy-5-[(6-[^18F]fluoro-pyridine-3-carbonyl)-amino]-pentyl}ureido)-pentanedioic acid]
- patients upstaged to N1 or M1 disease: 22%
- pts staged M1a: 0.4%
- pts staged M1b: 9.1%
- pts staged M1c: 1.2%
- pts staged with M1 disease: 10.7%
- pts staged with N1 disease (no known nodal/metastatic disease on standard imaging): 14.7%
